According to publication PMC11676834, “Composition of Triterpene Glycosides of the Far Eastern Sea Cucumber Cucumaria conicospermium Levin et Stepanov; Structure Elucidation of Five Minor Conicospermiumosides A3-1, A3-2, A3-3, A7-1, and A7-2; Cytotoxicity of the Glycosides Against Human Breast Cancer Cell Lines; Structure–Activity …” (Marine Drugs, 2024):
Like-named read-outs stand apart in the source and are kept apart here.

How the values were obtained:
[1] = tested on: MDA-MB-231 cells; experiment: cells; type: cell-based, human
Source text: (§1) Human erythrocytes were purchased from the Station of Blood Transfusion, Vladivostok. Human mammary epithelial cell line MCF-10A CRL-10317, human breast cancer cell lines T-47D HTB-133, MCF-7 HTB-22, and MDA-MB-231 CRM-HTB-26 were received from ATCC (Manassas, VA, USA). Culturing conditions: medium of RPMI-1640 with 1% penicillin/streptomycin (Biolot, St. Petersburg, Russia) and 10% fetal bovine serum (FBS) (Biolot, St. Petersburg, Russia) for the T-47D cell line; Minimum Essential Medium (MEM) with 1% penicillin/streptomycin sulfate (Biolot, St. Petersburg, Russia) and FBS (Biolot, St. Petersburg, Russia) to a final concentration of 10% for MCF-7 and MDA-MB-231 cells; DMEM/F12 medium with 10% FBS, 20 ng/mL EGF, […] hydrocortisone, 100 ng/mL cholera toxin, 10 μg/mL insulin, and 1% penicillin/streptomycin (BioinnLabs, Rostov-on-Don, Russia) for MCF-10A cell line.
(§2) The concentrations of tested glycosides were 0.1–50 µM; positive controls were cisplatin and okhotoside A1-1 (7). […] Then, the solutions of tested compounds with medium were replaced by 100 µL of fresh medium, and 10 µL of 3-(4,5-dimethylthiazol-2-yl)-2,5-diphenyltetrazolium bromide (MTT) (PanReac, AppliChem, Darmstadt, Germany) stock solution (5 mg/mL) was added to each well and incubated for 4 h, followed by the addition of 100 µL of SDS-HCl solution (1 g SDS/10 mL d-H2O/17 µL 6 N HCl) and further incubated for 18 h. Multiskan FC microplate photometer (Thermo Fisher Scientific, Waltham, MA, USA) was used to measure the absorbance of the converted dye formazan at 570 nm. The concentration caused the 50% cell metabolic activity inhibition (IC50) expresses the cytotoxic activity of each glycoside. The experiments were conducted in triplicate, p ≤ 0.05.

[2] = tested on: human erythrocytes; experiment: Hemolytic activity; type: cell-based; details: 1 h at 37 °C
Method: Human blood (B(III) Rh+) was used to obtain erythrocytes by centrifuging 450× g three times for 5 min with phosphate-buffered saline (PBS) (pH 7.4) at 4 °C on centrifuge LABOFUGE 400R (Heraeus, Hanau, Germany). Ice-cold PBS (pH 7.4) was used for resuspension of erythrocytes residue to a final optical density of 1.5 at 700 nm, which was kept on ice. Then, 10 µL of tested compound solution or control (okhotoside A1-1 (7)) were added to 90 µL of erythrocyte suspension in V-bottom 96-well plates and exposed for 1 h at 37 °C. Next, centrifugation at 900× g for 10 min on a laboratory centrifuge LMC-3000 (Biosan, Riga, Latvia), led to separation of layers, and 80 µL of supernatant was carefully decanted and transferred into new flat-plate for each. The values of erythrocyte lysis were measured on microplate photometer Multiskan FC (Thermo Fisher Scientific, Waltham, MA, USA) at λ = 570 nm as hemoglobin concentration in supernatant. The effective dose, causing lysis of 50% erythrocytes (ED50), was calculated with SigmaPlot 14.0 software. All the experiments were carried out in triple repetitions, p ≤ 0.05.

[3] = tested on: T-47D cells; experiment: cells; type: cell-based, human; details: MTT, 24 h, read-out: Cytotoxicity, IC50, T-47D
Source text: as §1
(§3) The concentrations of tested glycosides were 0.1–50 µM; positive controls were cisplatin and okhotoside A1-1 (7). Methodology: to each well of 96-well plates, the cell suspension (180 µL) with solution (20 µL) of tested glycoside in a certain concentration was placed (MCF-10A, MCF-7, T-47D, and MDA-MB-231—7 × 10^3 cells per well) and incubated in the atmosphere with 5% CO2 at 37 °C for 24 h. Then, the solutions of tested compounds with medium were replaced by 100 µL of fresh medium, and 10 µL of 3-(4,5-dimethylthiazol-2-yl)-2,5-diphenyltetrazolium bromide (MTT) (PanReac, AppliChem, Darmstadt, Germany) stock solution (5 mg/mL) was added to each well and incubated for 4 h, followed by the addition of 100 µL of SDS-HCl solution (1 g SDS/10 mL d-H2O/17 µL 6 N HCl) and further incubated for 18 h. Multiskan FC microplate photometer (Thermo Fisher Scientific, Waltham, MA, USA) was used to measure the absorbance of the converted dye formazan at 570 nm. The concentration caused the 50% cell metabolic activity inhibition (IC50) expresses the cytotoxic activity of each glycoside. The experiments were conducted in triplicate, p ≤ 0.05.

[4] = tested on: MCF-7 cells; experiment: cells; type: cell-based, human; details: MTT, 24 h, read-out: Cytotoxicity, IC50, MCF-7
Source text: as §1, §3

[5] = tested on: MDA-MB-231 cells; experiment: Wound scratch migration assay; type: cell-based, human; details: 5 μM, 24 h
Method: Attached to special migration plate plastic bottom MDA-MB-231 cells were separated by a silicone insert (Culture-insert 2 Well 24, ibiTreat). After removing an insert, the gap between the cells was 500 ± 50 μm. Cell debris and floating cells were deleted, and the fresh culture medium was added. Then, cells were treated with various concentrations of glycosides or culture medium only (vehicle control) and left for 24 hrs. Cell migration into the wound area was observed under a fluorescence microscope (MIB-2-FL, LOMO, Russia) with objective 10× magnification.

[6] = tested on: MCF-10A cells; experiment: Colony formation (clonogenic) assay, MCF-10A; type: cell-based, human
Method: The influence of glycosides on colony formation by MCF-10A or MDA-MB-231 cells was tested by the clonogenic assay. Cell density: 0.3 × 10^2/mL for MDA-MB-231 and for MCF-10A cells per well; incubation conditions: 10–12 days, 37 °C, atmosphere with 5% CO2; obtained: visible to eye colonies (at least 50 cells per colony); fixation with methanol (25 min); staining with 0.5% solution of crystal violet (25 min); washing and air-drying of plates. The counting of grown colonies was carried out using a BIO-PRINT-Cx4 Edge-Fixed Pad-Container (Vilber, Collégien, France) using Bio-Vision Software user and service manual-v18.01 (Vilber, Collégien, France). The results are presented as colony inhibition in comparison with the control.

[7] = in vitro; type: cell-based, human; details: human
Source text: as §1, §2

[8] = tested on: human erythrocytes; set-up: method as in PMID 38132923; details: studied earlier; ref [8]; cited from earlier work
[9] = tested on: MCF-10A cells; experiment: in vitro; type: cell-based, human
Source text: as §1, §2

[10] = 48 h, read-out: Cytotoxicity, IC50, 48 h, MCF-10A
[11] = 72 h, read-out: Cytotoxicity, IC50, 72 h, MCF-10A
[12] = MTT, 24 h, read-out: Cytotoxicity, IC50, MCF-10A

For `C=C(C)CCC[C@]1(C)OC(=O)C23CC[C@H]4C(=CC[C@H]5C(C)(C)C(O[C@@H]6OC[C@@H](OS(=O)(=O)O)[C@H](O)[C@H]6O[C@@H]6O[C@H](CO)[C@@H](O[C@@H]7O[C@H](CO)[C@@H](O)[C@H](O[C@@H]8O[C@H](CO)[C@@H](O)[C@H](OC)[C@H]8O)[C@H]7O)[C@H](O)[C@H]6O[C@@H]6OC[C@@H](O)[C@H](O)[C@H]6O)CC[C@]45C)[C@]2(C)C[C@H](OC(C)=O)C31` (some centres unmarked) [Okhotoside B1 (8), okhotoside B1], the “Tumor cell selectivity index (SI), IC50 MCF-10A / IC50 MDA-MB-231” value ([1]; 24 h) was 3.61, the “Tumor cell selectivity index (SI), IC50 MCF-10A / IC50 MDA-MB-231” value ([1]; 48 h) was 1.32 and the “Tumor cell selectivity index (SI), IC50 MCF-10A / IC50 MDA-MB-231” value ([1]; 72 h) was 5.65. For the same compound, the IC50 ([1]; Homo sapiens, MDA-MB-231, 48 h, read-out: Cytotoxicity, IC50, 48 h, MDA-MB-231) was 11.7 ± 1 µM, the IC50 ([1]; Homo sapiens, MDA-MB-231, 72 h, read-out: Cytotoxicity, IC50, 72 h, MDA-MB-231) was 2.92 ± 0.07 µM and the IC50 ([1]; Homo sapiens, MDA-MB-231, MTT, 24 h, read-out: Cytotoxicity, IC50, MDA-MB-231) was 11.3 ± 0.2 µM. It also gave an HC50 ([2]; Erythrocyte, read-out: ED50, Erythrocytes (hemolytic activity)) of 1050 ± 120 nM, an IC50 ([3]; Homo sapiens, T47D) of 20.3 ± 0.85 µM and an IC50 ([4]; Homo sapiens, MCF7) of 42.9 ± 2 µM. The “Constraint on cell motility (migration) of MDA-MB-231 cells” value [5] was 97%, the inhibition at 5 µM ([6]; Homo sapiens, MCF-10A, 5 μM, % of the control) was 40.2% and the IC50 [7, 10] was 15.5 ± 0.81 µM. It also gave an IC50 [7, 11] of 16.5 ± 0.98 µM and an IC50 [7, 12] of 41 ± 0.81 µM.

For `CO[C@@H]1[C@@H](O)[C@H](O[C@@H]2[C@@H](O)[C@H](O[C@H]3[C@H](O)[C@@H](O[C@@H]4OC[C@@H](O)[C@H](O)[C@H]4O)[C@H](O[C@H]4[C@H](O[C@H]5CC[C@]6(C)C7CC[C@]8(C)[C@@H]([C@@](C)(O)C(=O)CC=C(C)C)CC[C@@]8(C)C7=CC[C@H]6C5(C)C)OC[C@@H](OS(=O)(=O)[O-])[C@@H]4O)O[C@@H]3C)O[C@H](COS(=O)(=O)[O-])[C@H]2O)O[C@H](COS(=O)(=O)[O-])[C@H]1O.[Na+].[Na+].[Na+]` (some centres unmarked) [djakonovioside F1 (15), djakonovioside F1], the “Hemolytic activity (in words)” value [8] is given as “highly active”.

In the case of “DS-okhotoside B1 [DS-okhotoside B1 (8a)]”, the “Tumor cell selectivity index (SI), IC50 MCF-10A / IC50 MDA-MB-231” value ([1]; 24 h) is reported as 9.06, the “Tumor cell selectivity index (SI), IC50 MCF-10A / IC50 MDA-MB-231” value ([1]; 24 h, listed as 8a) is reported as about 10 and the “Tumor cell selectivity index (SI), IC50 MCF-10A / IC50 MDA-MB-231” value ([1]; 48 h) is reported as 2.21. For the same compound, the IC50 ([1]; 48 h, read-out: Cytotoxicity, IC50, 48 h, MDA-MB-231) was 2.63 ± 0.14 µM, the “Tumor cell selectivity index (SI), IC50 MCF-10A / IC50 MDA-MB-231” value ([1]; 72 h) was 4.62 and the IC50 ([1]; 72 h, read-out: Cytotoxicity, IC50, 72 h, MDA-MB-231) was 0.6 ± 0.03 µM. The IC50 ([1]; MTT, 24 h, read-out: Cytotoxicity, IC50, MDA-MB-231) was 1.09 ± 0.08 µM, the “ED50, Erythrocytes (hemolytic activity)” value [2] was 0.33 ± 0.03 µM and the IC50 [3] was 9.62 ± 0.3 µM. The IC50 [4] was 18.8 ± 0.71 µM, the “Influence on colony formation and growth of MCF-10A cells” value ([6]; 0.5 μM) was “did not influence” and the IC50 [9, 10] was 5.81 ± 0.46 µM. It also gave an IC50 [9, 11] of 2.77 ± 0.25 µM and an IC50 [9, 12] of 9.87 ± 0.73 µM.
